Experimental data from patent US20250164463A1, “SCREENING METHOD AND THERAPEUTIC AGENT FOR MENTAL DISORDER” (Fujita Health University, priority 2022, published 2025).

How the values were obtained:
[1] = system: mice after alcohol intake and alcohol abstinence; assay: Social interaction test (SIT) in mice after alcohol intake and alcohol abstinence; format: in vivo, C57BL/6J mice; details: clemastine 10 mg/kg orally every day from end of EtOH administration to final day of behavioral tests; EtOH+clemastine group vs EtOH group; FIG. 5(b)
Method: (§1) Male C57BL/6J mice at the age of 4 weeks (P28) were used. The mice were accommodated in a plastic cage and maintained at a light-dark cycle of 12 hours (lighting at 8:00 A.M.) with ad libitum access to feed and water.
(§2) Sixteen mice were orally administered EtOH (3.0 g/kg; diluted to 25% with sterile water) intermittently from P28 to P45 for 10 days in total (once a day) according to the schedule of FIG. 1(a). Sixteen control mice were orally administered sterile water in the same amount as that in the mice administered EtOH.
All the behavioral experiments were performed between 10:00 A.M. and 6:00 P.M. To obtain an indicator of sociality, a social interaction test was conducted. To obtain an indicator of anxiety behavior, a marble-burying behavior test and a novelty suppressed feeding test were conducted. To obtain an indicator of cognitive function, a novel object recognition test was conducted. […]
The social interaction test was conducted by a method in conformity with a previous report (Mouri A et al., J Neurosci. 2012 Mar. 28; 32(13): 4562-80). […] A time length of a social interaction (e.g., smelling each other, grooming each other, pursuing, mounting, or crawling) was recorded. […]

[2] = system: mice after alcohol intake and alcohol abstinence; assay: Novelty suppressed feeding test (NSF) in mice after alcohol intake and alcohol abstinence; format: in vivo, C57BL/6J mice; details: clemastine 10 mg/kg orally every day from end of EtOH administration to final day of behavioral tests; EtOH+clemastine group vs EtOH group; FIG. 5(b)
Method: as §1, §2
(§3) All the behavioral experiments were performed between 10:00 A.M. and 6:00 P.M. To obtain an indicator of sociality, a social interaction test was conducted. To obtain an indicator of anxiety behavior, a marble-burying behavior test and a novelty suppressed feeding test were conducted. To obtain an indicator of cognitive function, a novel object recognition test was conducted. To reduce influences from previous experiments, the social interaction test, the marble-burying behavior test, the novelty suppressed feeding test, and the novel object recognition test were conducted in the stated order. […]
The novelty suppressed feeding test was conducted by a method in conformity with a previous report (Lu Q et al., Behav Brain Res. 2019 Oct. 17; 372: 112053). […] A latency time taken for feed intake was recorded. […]

[3] = system: mice after alcohol intake and alcohol abstinence; assay: Marble-burying behavior test (MB) in mice after alcohol intake and alcohol abstinence; format: in vivo, C57BL/6J mice; details: clemastine 10 mg/kg orally every day from end of EtOH administration to final day of behavioral tests; EtOH+clemastine group vs EtOH group; FIG. 5(b)
Method: as §1, §2, §3
The marble-burying behavior test was conducted by a method in conformity with a previous report (Alkam T et al., Behav Brain Res. 2013 Feb. 15; 239: 80-9). […] When ⅔ of the surface area of a marble was covered with the sawdust, the marble was counted as being buried. […]

[4] = system: myelin sheath marker (MAG) in prefrontal cortexes of mice after alcohol intake and alcohol abstinence; assay: Immunohistochemical staining of prefrontal cortex with myelin sheath marker (MAG), myelin sheath formation enhancing effect; format: in vivo; details: clemastine 10 mg/kg orally every day after end of EtOH administration, ImageJ, FIG. 8(b), 8(c)
Method: Mice (4 mice for each group) were administered EtOH in the same manner as in Examples 1 and 2. Control mice (4 mice for each group) were orally administered sterile water in the same amount as that in the mice administered EtOH. […] Frozen slices of prefrontal cortexes and hippocampuses of the mice prepared were heated in a 10 mM citrate buffer solution (pH 6.0) with a microwave oven for 5 minutes. After washed with PBS, the slices were subjected to blocking with 5% normal horse serum (Cat #S-2000, Vector Laboratories, Inc., Burlingame, CA, USA) in PBST for 1 hour. After that, the slices were caused to react with one of primary antibodies at 4° C. overnight. After washed with PBST, the slices were caused to react with a secondary antibody (1:2,000) at room temperature for 3 hours. The primary antibodies used were a mouse anti-CC1 antibody (1:500; Cat #MABF850, Millipore) and a goat anti-PDGFRα antibody (1:200; Cat #AF1062, R&D Systems Inc.)

CN1CCC[C@@H]1CCO[C@](C)(c1ccccc1)c1ccc(Cl)cc1 [clemastine]
significantly remitted: social interaction reduction (social interaction test) [1] | anxiety-like behavior (novelty suppressed feeding test) [2] | anxiety-like behavior (marble-burying behavior test) [3] | myelin sheath abnormality in the prefrontal cortexes (MAG signal intensity) [4]
